According to publication PMC6481345, “A novel anti-melanoma SRC-family kinase inhibitor” (Oncotarget, 2019):

Columns and labels:
ERBB2 = ERBB2 (Homo sapiens, UniProt P04626); test: KiNativ in situ kinase profiling in melanoma cell lysates; format: binding; parameters: we tested the endogenous kinome response to SAB298; host or cells: YUSIV and YUSIK melanoma cell lysates; conditions: for IC50: 3-point dose response
Procedure: (§1) The effect of SAB298 on a panel of 36 recombinant kinases, was screed with the radioisotope filter binding assay employing 10 concentrations of the compound with 10 µM ATP (Reaction Biology Corporation, Malvern, PA). In addition, we tested the endogenous kinome response to SAB298 (0.05 µM, 0.5 µM and 5 µM) in lysates from two melanoma cell lines (YUSIV and YUSIK) employing the KiNativ® platform (ActivX Biosciences Inc., La Jolla, CA). KiNativ® is a robust, high performance mass spectrometry (LC-MS^2) assay that uses biotinylated probes to measure relevant changes in the affinity to the ATP-binding sites of 205 native kinases as a function of cellular context. We also validated SAB298 effect on the activity of SRC-family kinases by probing for phosphorylated Y416, the marker of activated SFKs, with anti-IEDNEpYTAR antibodies (also known as Y419, #2101, Cell Signaling Technology, Beverly, MA). In some cases the cells were incubated overnight with 20 µM proteasome inhibitor MG-132 (CAS 133407-82-6, Millipore Sigma, Burlington, MA) to rescue degradation.

ABL2 = ABL2 (Homo sapiens, UniProt P42684); test: as above; format: binding; parameters: we tested the endogenous kinome response to SAB298; host or cells: YUSIV and YUSIK melanoma cell lysates; conditions: 3-point dose response
Procedure: as §1

[1] = system: panel of 36 recombinant kinases; test: Radioisotope filter assay, panel of recombinant kinases (summary); format: biochemical; conditions: SRC-family kinases YES1, BLK, LCK, FGR, HCK and FYN; read-out: IC50, range over kinases
Procedure: as §1
Supplemntary Table 3: Radioisotope filter activity assay Tests for SAB298 target protein
*These are results from 10 point dose response test employed with 10 µM ATP.
Supplementary Table 4: Lentiviral vectors MISSION pLKO.1 puromycin bearing SFK shRNA used to test the effect of
specific SFK downregulation on cell proliferation […]

YUHIMO melanoma cells = test: CellTiter-Glo Luminescent Cell Viability Assay; format: cell-based; conditions: Homo sapiens, PDE4DIP-BRAF fusion, 72 hrs
Procedure: (§2) The melanoma cells were grown in OptiMEM (Invitrogen, Carlsbad, CA) supplemented with 5% fetal calf serum and antibiotics. The normal human melanocytes (NBMEL) were grown in medium supplemented with bFGF, IBMX and dbcAMP [32]. Most of the Yale melanoma cell lines were characterized by next-generation sequencing (Supplementary Table 2).
(§3) Cell proliferation was measured with the CellTiter-Glo® Luminescent Cell Viability Assay (Promega Corporation, Madison, WI). Melanoma cells were seeded in 96-well plates in triplicate or quadruplet wells, with increasing concentrations of kinase inhibitors for 72 hrs. The rate of proliferation was also tested after knockdown of different SRC-family kinases (SFK) with hairpin lentivirus shRNA as indicated. […] The statistical significance of synergism of response to drug combinations was evaluated by following Chou and Talalay algorithm. See also details in Supplementary Material.

SK-MEL-28 melanoma cells = test: CellTiter-Glo Luminescent Cell Viability Assay; format: cell-based; conditions: Homo sapiens, SK-MEL-28, BRAF V600E, 72 hrs
Procedure: as §2, §3

YUTICA melanoma cells = test: CellTiter-Glo Luminescent Cell Viability Assay; format: cell-based; conditions: Homo sapiens, NRAS Q61R, 72 hrs
Procedure: as §2, §3

YUHEF melanoma cells = test: CellTiter-Glo Luminescent Cell Viability Assay; format: cell-based; conditions: Homo sapiens, WT/WT, 72 hrs
Procedure: as §2, §3

YUGANK melanoma cells = test: CellTiter-Glo Luminescent Cell Viability Assay; format: cell-based; conditions: Homo sapiens, NRAS Q61K, 72 hrs
Procedure: as §2, §3

YUCRATE melanoma cells = test: CellTiter-Glo Luminescent Cell Viability Assay; format: cell-based; conditions: Homo sapiens, BRAF G469A, 72 hrs
Procedure: as §2, §3

YUFURL melanoma cells = test: CellTiter-Glo Luminescent Cell Viability Assay; format: cell-based; conditions: Homo sapiens, NRAS G12D, 72 hrs
Procedure: as §2, §3

YUNIS melanoma cells = test: CellTiter-Glo Luminescent Cell Viability Assay; format: cell-based; conditions: Homo sapiens, HRAS Q61K, 72 hrs
Procedure: as §2, §3

YUGEN8 melanoma cells = test: CellTiter-Glo Luminescent Cell Viability Assay; format: cell-based; conditions: Homo sapiens, YUGEN8, BRAF V600E, 72 hrs
Procedure: as §2, §3

YUKSI melanoma cells = test: CellTiter-Glo Luminescent Cell Viability Assay; format: cell-based; conditions: Homo sapiens, BRAF V600K, 72 hrs
Procedure: as §2, §3

YULIPPY melanoma cells = test: CellTiter-Glo Luminescent Cell Viability Assay; format: cell-based; conditions: Homo sapiens, BRAF V600E, 72 hrs
Procedure: as §2, §3

YUROL melanoma cells = test: CellTiter-Glo Luminescent Cell Viability Assay; format: cell-based; conditions: Homo sapiens, WT/WT, 72 hrs
Procedure: as §2, §3

YUZEST melanoma cells = test: CellTiter-Glo Luminescent Cell Viability Assay; format: cell-based; conditions: Homo sapiens, BRAF V600E, 72 hrs
Procedure: as §2, §3

YUTOGS melanoma cells = test: CellTiter-Glo Luminescent Cell Viability Assay; format: cell-based; conditions: Homo sapiens, WT/WT, 72 hrs
Procedure: as §2, §3

YUDOSO melanoma cells = test: CellTiter-Glo Luminescent Cell Viability Assay; format: cell-based; conditions: Homo sapiens, NRAS Q61K, 72 hrs
Procedure: as §2, §3

YUMAC melanoma cells = test: CellTiter-Glo Luminescent Cell Viability Assay; format: cell-based; conditions: Homo sapiens, BRAF V600K, 72 hrs
Procedure: as §2, §3

SK-MEL-23 melanoma cells = test: CellTiter-Glo Luminescent Cell Viability Assay; format: cell-based; conditions: Homo sapiens, SK-MEL-23, WT/WT, 72 hrs
Procedure: as §2, §3

YURIF melanoma cells = test: CellTiter-Glo Luminescent Cell Viability Assay; format: cell-based; conditions: Homo sapiens, BRAF V600K, 72 hrs
Procedure: as §2, §3

YUPEPO melanoma cells = test: CellTiter-Glo Luminescent Cell Viability Assay; format: cell-based; conditions: Homo sapiens, WT/WT, GNA11 Q209L, 72 hrs
Procedure: as §2, §3

YUCHIME melanoma cells = test: CellTiter-Glo Luminescent Cell Viability Assay; format: cell-based; conditions: Homo sapiens, BRAF V600K/M, 72 hrs
Procedure: as §2, §3

Sequence of ERBB2 (P04626 23-1255): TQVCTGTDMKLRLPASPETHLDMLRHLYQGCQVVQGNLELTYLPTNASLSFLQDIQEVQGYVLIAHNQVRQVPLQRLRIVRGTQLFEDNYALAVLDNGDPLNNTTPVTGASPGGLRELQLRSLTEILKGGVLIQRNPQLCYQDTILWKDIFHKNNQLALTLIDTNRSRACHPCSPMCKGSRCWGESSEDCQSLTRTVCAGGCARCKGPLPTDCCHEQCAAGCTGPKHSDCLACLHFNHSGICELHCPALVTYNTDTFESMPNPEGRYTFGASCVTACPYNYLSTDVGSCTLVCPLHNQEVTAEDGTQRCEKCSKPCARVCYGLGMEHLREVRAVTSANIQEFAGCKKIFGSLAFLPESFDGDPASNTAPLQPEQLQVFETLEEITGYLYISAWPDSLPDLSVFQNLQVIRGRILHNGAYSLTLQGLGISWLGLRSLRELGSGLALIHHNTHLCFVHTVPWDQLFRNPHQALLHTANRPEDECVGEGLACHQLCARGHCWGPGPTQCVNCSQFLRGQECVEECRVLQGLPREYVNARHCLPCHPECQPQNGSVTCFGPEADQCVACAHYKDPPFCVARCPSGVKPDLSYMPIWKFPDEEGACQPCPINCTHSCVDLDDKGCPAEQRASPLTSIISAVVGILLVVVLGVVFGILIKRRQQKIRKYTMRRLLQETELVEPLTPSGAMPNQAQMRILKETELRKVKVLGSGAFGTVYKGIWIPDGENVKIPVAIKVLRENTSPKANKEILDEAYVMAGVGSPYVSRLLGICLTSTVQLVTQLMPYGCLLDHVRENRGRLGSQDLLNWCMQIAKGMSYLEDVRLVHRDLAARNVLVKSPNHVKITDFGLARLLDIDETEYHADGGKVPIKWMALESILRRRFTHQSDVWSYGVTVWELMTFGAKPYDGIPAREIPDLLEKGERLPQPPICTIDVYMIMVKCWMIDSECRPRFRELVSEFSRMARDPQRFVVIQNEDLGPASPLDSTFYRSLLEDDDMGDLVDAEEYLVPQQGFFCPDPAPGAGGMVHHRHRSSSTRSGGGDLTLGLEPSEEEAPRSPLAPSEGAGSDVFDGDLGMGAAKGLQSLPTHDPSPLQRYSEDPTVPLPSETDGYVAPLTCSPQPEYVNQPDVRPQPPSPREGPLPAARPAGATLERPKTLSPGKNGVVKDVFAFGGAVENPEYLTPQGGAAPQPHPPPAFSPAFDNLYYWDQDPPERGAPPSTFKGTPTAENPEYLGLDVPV
Sequence of ABL2 (P42684 whole entry): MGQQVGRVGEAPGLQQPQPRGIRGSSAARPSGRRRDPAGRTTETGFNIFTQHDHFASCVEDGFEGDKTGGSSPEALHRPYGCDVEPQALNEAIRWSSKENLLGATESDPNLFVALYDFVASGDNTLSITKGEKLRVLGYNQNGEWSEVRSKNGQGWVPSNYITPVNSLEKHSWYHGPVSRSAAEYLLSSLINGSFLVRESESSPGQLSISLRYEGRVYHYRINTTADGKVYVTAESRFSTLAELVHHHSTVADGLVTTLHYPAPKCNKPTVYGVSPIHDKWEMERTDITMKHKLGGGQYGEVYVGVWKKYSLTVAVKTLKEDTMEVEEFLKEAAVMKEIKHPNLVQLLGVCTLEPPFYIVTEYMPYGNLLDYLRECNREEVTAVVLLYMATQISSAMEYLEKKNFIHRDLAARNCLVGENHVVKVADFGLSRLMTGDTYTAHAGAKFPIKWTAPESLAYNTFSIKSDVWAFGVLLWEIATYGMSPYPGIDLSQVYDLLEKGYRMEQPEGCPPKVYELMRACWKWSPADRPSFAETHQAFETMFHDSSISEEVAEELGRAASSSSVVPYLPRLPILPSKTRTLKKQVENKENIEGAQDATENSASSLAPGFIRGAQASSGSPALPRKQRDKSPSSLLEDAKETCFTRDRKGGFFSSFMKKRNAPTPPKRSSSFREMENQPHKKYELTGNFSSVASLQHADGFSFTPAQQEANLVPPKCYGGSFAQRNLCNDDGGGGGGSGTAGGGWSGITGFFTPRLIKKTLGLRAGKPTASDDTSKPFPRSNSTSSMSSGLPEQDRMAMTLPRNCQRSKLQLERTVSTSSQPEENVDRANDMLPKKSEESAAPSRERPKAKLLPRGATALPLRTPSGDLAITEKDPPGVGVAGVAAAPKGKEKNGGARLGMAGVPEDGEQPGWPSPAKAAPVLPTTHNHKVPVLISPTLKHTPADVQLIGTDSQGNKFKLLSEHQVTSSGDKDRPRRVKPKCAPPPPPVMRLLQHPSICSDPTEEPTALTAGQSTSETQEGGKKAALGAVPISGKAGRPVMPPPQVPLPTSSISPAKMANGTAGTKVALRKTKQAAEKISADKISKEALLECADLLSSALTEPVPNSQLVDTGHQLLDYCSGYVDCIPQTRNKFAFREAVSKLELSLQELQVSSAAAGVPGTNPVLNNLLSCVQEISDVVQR

## Nc1ncnc2c1c(-c1ccc(Oc3ccccc3)cc1)nn2C[C@@H]1SSC[C@@H]1O [SAB298, (3S, 4S)-3-((4-amino-3-(4-phenoxyphenyl)-1H-pyrazolo[3,4-d]pyrimidin-1-yl)methyl)-1,2-dithiolan-4-ol]
ERBB2; ERBB2
  higher binding affinity in KiNativ assay compared to radioisotope filtration binding assay: ~20 fold
ERBB2; ERBB2 in YUSIK lysate
  IC50: 530 nM
ERBB2; ERBB2 in YUSIV lysate
  IC50: 410 nM
ABL2; ABL2 in YUSIK lysate
  IC50: 240 nM
ABL2; ABL2 in YUSIV lysate
  IC50: 87 nM
[1]
  IC50: 0.7 to 21.7 nM
YUHIMO melanoma cells
  IC50: 237 nM
SK-MEL-28 melanoma cells
  IC50: 812 nM
YUTICA melanoma cells
  IC50: 766 nM
YUHEF melanoma cells
  IC50: 257 nM
YUGANK melanoma cells
  IC50: 456 nM
YUCRATE melanoma cells
  IC50: 282 nM
YUFURL melanoma cells
  IC50: 371 nM
YUNIS melanoma cells
  IC50: 2580 nM
YUGEN8 melanoma cells
  IC50: 115 nM
YUKSI melanoma cells
  IC50: 582 nM
YULIPPY melanoma cells
  IC50: 111 nM
YUROL melanoma cells
  IC50: 717 nM
YUZEST melanoma cells
  IC50: 263 nM
YUTOGS melanoma cells
  IC50: 347 nM
YUDOSO melanoma cells
  IC50: 2360 nM
YUMAC melanoma cells
  IC50: 894 nM
SK-MEL-23 melanoma cells
  IC50: 162 nM
YURIF melanoma cells
  IC50: 500 nM
YUPEPO melanoma cells
  IC50: 264 nM
YUCHIME melanoma cells
  IC50: 2480 nM
